Results from patent US9469645B2, “Compounds and compositions for the treatment of parasitic diseases” (Novartis AG, priority 2009, dated 2016).

What was measured:
[1] = tested on: W2 strain; experiment: parasite proliferation assay in infected red blood cells (SYBR Green I), W2 strain; type: cell-based, Plasmodium falciparum; conditions: Plasmodium falciparum, Erythrocyte
Text: (§1) Compounds of the invention can be assayed to measure their capacity to inhibit proliferation of parasitemia in infected red blood cells. The proliferation is quantified by the addition of SYBR Green I (INVITROGEN)® dye which has a high affinity for double stranded DNA.

[2] = tested on: 3D7 P. falciparum strain; experiment: parasite proliferation assay in infected red blood cells (SYBR Green I); type: cell-based, Plasmodium falciparum; conditions: Plasmodium falciparum, 3D7, Erythrocyte, 3D7 strain; read-out: EC50 3D7 strain
Procedure, shortened: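 P. falciparum 3D7 grown in O+ human erythrocytes to 3–8% parasitemia and exposed to compounds. Proliferation read as the increase in parasite DNA. Detection used SYBR Green I in saponin/triton-X/EDTA lysis buffer, with overnight lysis at room temperature.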

[3] = tested on: W2 strain; experiment: parasite proliferation assay in infected red blood cells (SYBR Green I), W2 strain; type: cell-based; conditions: Erythrocyte
Text: as §1

`Cc1ccc(Nc2c(-c3ccncc3)nc3n2CCN(C(=O)C(C)(C)N)C3)cc1` [Compound 398] showed an EC50 [1] of 2680 nM and an EC50 [2] of 2730 nM.
`Cc1ccc(Nc2c(-c3ccc(F)cc3)nc3n2CCN(C(=O)CNC(C)(C)C)C3)cc1` [Compound 399] gave an EC50 [1] of 196 nM and an EC50 [2] of 220 nM.
With `CN[C@@H](Cc1ccc(Cl)cc1)C(=O)N1CCn2c(nc(-c3ccc(F)cc3)c2Nc2ccc(C)cc2)C1` [Compound 400] the EC50 [1] was 105 nM and the EC50 [2] was 180 nM.
Work on `Cc1ccc(Nc2c(-c3ccc(F)cc3)nc3n2CCN(C(=O)[C@@H](N)CC2CC2)C3)cc1` [Compound 401] yielded an EC50 [1] of 12 nM and an EC50 [2] of 20 nM.
For `Cc1ccc(Nc2c(-c3ccc(F)cc3)nc3n2CCN(C(=O)[C@@H](C)NCc2ccccc2)C3)cc1` [Compound 402], the EC50 [1] was 122 nM and the EC50 [2] was 120 nM.
`Cc1ccc(Nc2c(-c3ccc(F)cc3)nc3n2CCN(C(=O)[C@H](C)NCc2ccccc2)C3)cc1` [Compound 403] showed an EC50 [1] of 543 nM and an EC50 [2] of 510 nM.
`Cc1ccc(Nc2c(-c3ccc(F)cc3)nc3n2CCN(C(=O)[C@@H](N)C2CC2)C3)cc1` [Compound 404] was tested, and the EC50 [1] was 12 nM and the EC50 [2] was 20 nM.
In the case of `Cc1ccc(Nc2c(-c3ccc(F)c(F)c3)nc3n2CCN(C(=O)[C@H](C)N)C3)cc1` [Compound 406], the EC50 [1] is reported as 40 nM and the EC50 [2] is reported as 60 nM.
Molecule `Cc1ccc(Nc2c(-c3ccc(F)cc3)nc3n2CCN(C(=O)C(C)Nc2ccc(C)cc2)C3)cc1` (stereo not drawn) [Compound 407] has an EC50 [1] of 523 nM and an EC50 [2] of 710 nM.
`Cc1ccc(Nc2c(-c3cc(F)ccc3F)nc3n2CCN(C(=O)C(C)(C)N)C3)cc1` [Compound 408] showed an EC50 [1] of 908 nM and an EC50 [2] of 930 nM.
For `Cc1ccc(Nc2c(-c3ccc(F)cc3)nc3n2CCN(C(=O)CN)C3(C)C)cc1` [Compound 409], the EC50 [1] was 6 nM and the EC50 [2] was 10 nM.
For `CC(C)(N)C(=O)N1CCn2c(nc(-c3ccc(F)cc3)c2Nc2ccc(Cl)c(Cl)c2)C1` [Compound 410], the EC50 [1] was 37 nM and the EC50 [2] was 60 nM.
Molecule `Fc1ccc(-c2nc3n(c2Nc2ccc(Cl)c(Cl)c2)CCNC3)cc1` [Compound 411] has an EC50 [1] of 106 nM and an EC50 [2] of 140 nM.
`CCN(c1ccc(Cl)c(F)c1)c1c(-c2ccc(F)cc2)nc2n1CCNC2` [Compound 413] showed an EC50 [1] of 131 nM and an EC50 [2] of 180 nM.
Molecule `CN[C@@H](C(=O)N1CCn2c(nc(-c3ccc(F)cc3)c2Nc2ccc(C)cc2)C1)C(C)C` [Compound 414] has an EC50 [1] of 156 nM and an EC50 [2] of 160 nM.
Molecule `Cc1ccc(Nc2c(-c3ccc(F)cc3)nc3n2CCNC3(C)C)cc1` [Compound 415] has an EC50 [1] of 13 nM and an EC50 [2] of 10 nM.
Work on `CC1(C)NCCn2c1nc(-c1ccc(F)cc1)c2Nc1ccc(Cl)cc1` [Compound 416] yielded an EC50 [1] of 16 nM and an EC50 [2] of 10 nM.
Work on `CC1(C)c2nc(-c3ccc(F)cc3)c(Nc3ccc(Cl)cc3)n2CCN1C(=O)CN` [Compound 417, 2-amino-1-(3-(4-chlorophenylamino)-2-(4-fluorophenyl)-8,8-dimethyl-5,6-dihydroimidazo[1,2-a]pyrazin-7(8H)-yl)ethanone] yielded an EC50 [1] of 6 nM and an EC50 [2] of 10 nM.
With `CC1(C)c2nc(-c3ccc(F)cc3)c(Nc3cc(F)c(F)c(F)c3)n2CCN1C(=O)CN` [Compound 554] the EC50 [1] was 7 nM.
For `CC1(C)c2nc(-c3ccc(F)cc3)c([S+]([O-])c3ccc(F)c(F)c3)n2CCN1C(=O)CN` (stereo not drawn) [Compound 723], the EC50 [2] was 89 nM and the EC50 ([3]; Plasmodium falciparum) was 68 nM.
For `CC1(C)c2nc(-c3ccc(F)cc3)c([S+]([O-])c3ccc(Cl)cc3)n2CCN1C(=O)CN` (stereo not drawn) [Compound 724], the EC50 [2] was 509 nM and the EC50 ([3]; Plasmodium falciparum) was 287 nM.
Work on `CC1(C)c2nc(-c3ccc(F)cc3)c(Nc3ccc(F)cc3)n2CCN1C(=O)CNC(=O)CCc1ccccc1` [Compound 726] yielded an EC50 [2] of 1920 nM and an EC50 ([3]; Plasmodium falciparum) of 1480 nM.
For `CC1(C)c2nc(-c3ccc(F)cc3)c(Nc3ccc(F)cc3)n2CCN1C(=O)CNC(=O)CCc1ccc2oc3ccccc3c2c1` [Compound 727], the EC50 [2] was 6560 nM and the EC50 ([3]; Plasmodium falciparum) was 2970 nM.
`CC1(C)c2nc(-c3ccc(F)cc3)c(Nc3ccc(F)cc3)n2CCN1C(=O)CNC(=O)CCNC(=O)CCc1ccccc1` [Compound 728] showed an EC50 [2] of 5400 nM and an EC50 ([3]; Plasmodium falciparum) of 1480 nM.
Molecule `CC1(C)c2nc(-c3ccc(F)cc3)c(Nc3ccc(F)cc3)n2CCN1C(=O)CNC(=O)CCNC(=O)CCc1ccc2oc3ccccc3c2c1` [Compound 729] has an EC50 [2] greater than 10000 nM and an EC50 ([3]; Plasmodium falciparum) of 6290 nM.
`CC1(C)c2nc(-c3ccc(F)cc3)c(Nc3ccc(F)cc3)n2CCN1C(=O)CNCCCNC(=O)CCc1ccccc1` [Compound 730, N-(3-(2-(2-(4-fluorophenyl)-3-(4-fluorophenylamino)-8,8-dimethyl-5,6-dihydroimidazo[1,2-a]pyrazin-7 (8H)-yl)-2-oxoethylamino)propyl)-3-phenylpropanamide] gave an EC50 [2] of 1360 nM and an EC50 ([3]; Plasmodium falciparum) of 474 nM.
For `Cc1ccc(Nc2c(-c3cccnc3)nc3n2CCCC3)cc1` [Compound 737], the EC50 [2] was 7850 nM and the EC50 ([3]; Plasmodium falciparum) was 4090 nM.
`CC(C)(C)CC(C)(C)Nc1c(C2CCCCC2)nc2ccccn12` [Compound 738] gave an EC50 [2] of 3240 nM and an EC50 ([3]; Plasmodium falciparum) of 1560 nM.
`CC(C)(C)CC(C)(C)Nc1c(C(c2ccccc2)c2ccccc2)nc2ccccn12` [Compound 739] showed an EC50 [2] of 768 nM and an EC50 ([3]; Plasmodium falciparum) of 881 nM.
Molecule `CC(C)(C)CC(C)(C)Nc1c(-c2ccccc2-c2cccs2)nc2ccccn12` [Compound 741] has an EC50 [2] of 5250 nM and an EC50 ([3]; Plasmodium falciparum) of 4830 nM.
`CC(C)(C)CC(C)(C)Nc1c(-c2ccccc2OC(F)F)nc2ccccn12` [Compound 742] gave an EC50 [2] of 6430 nM and an EC50 ([3]; Plasmodium falciparum) of 11600 nM.
Work on `CC(C)(C)CC(C)(C)Nc1c(-c2ccccc2Br)nc2ccccn12` [Compound 743] yielded an EC50 [2] of 2680 nM and an EC50 ([3]; Plasmodium falciparum) of 3000 nM.
Work on `CCN(CC)CCOc1ccccc1-c1nc2ccccn2c1NC(C)(C)CC(C)(C)C` [Compound 744] yielded an EC50 [2] of 5240 nM and an EC50 ([3]; Plasmodium falciparum) of 2810 nM.
`CC(C)(C)CC(C)(C)Nc1c(-c2ccccc2C(F)(F)F)nc2ccccn12` [Compound 745] was tested, and the EC50 [2] was 3570 nM and the EC50 ([3]; Plasmodium falciparum) was 4230 nM.
Molecule `CC(C)(C)CC(C)(C)Nc1c(-c2ccccc2OCCO)nc2ccccn12` [Compound 746] has an EC50 [2] greater than 10000 nM and an EC50 ([3]; Plasmodium falciparum) of 6940 nM.
Work on `CC(C)(C)CC(C)(C)Nc1c(-c2ccccc2-c2ccco2)nc2ccccn12` [Compound 747] yielded an EC50 [2] of 2230 nM and an EC50 ([3]; Plasmodium falciparum) of 4480 nM.
Molecule `Cc1ccc(Nc2c(-c3ccc(F)cc3)nc3ccc(C)cn23)cc1` [Compound 748] has an EC50 [2] of 3440 nM and an EC50 ([3]; Plasmodium falciparum) of 4150 nM.
`Fc1ccc(-c2nc3n(c2Nc2ccc(Cl)c(F)c2)CCCC3)cc1` [Compound 749] showed an EC50 [2] of 1050 nM and an EC50 ([3]; Plasmodium falciparum) of 814 nM.
`Cc1ccc(Nc2c(-c3ccc(F)cc3)nc3n2CCCC3)cc1` [Compound 750] was tested, and the EC50 [2] was 4770 nM and the EC50 ([3]; Plasmodium falciparum) was 4960 nM.
With `Cc1ccc(Nc2c(-c3ccc(F)cc3)nc3ccccn23)cc1` [Compound 751] the EC50 [2] was 1790 nM and the EC50 ([3]; Plasmodium falciparum) was 4550 nM.
Molecule `Cc1ccc2nc(-c3ccc(F)cc3)c(Nc3ccc(Cl)c(F)c3)n2c1` [Compound 752] has an EC50 [2] of 1620 nM and an EC50 ([3]; Plasmodium falciparum) of 2380 nM.
`Cc1ccc(Nc2c(-c3ccc(F)cc3)nc3n2CC(C)CC3)cc1` (stereo not drawn) [Compound 753] gave an EC50 [2] of 376 nM and an EC50 ([3]; Plasmodium falciparum) of 592 nM.
`CC1CCc2nc(-c3ccc(F)cc3)c(Nc3ccc(Cl)c(F)c3)n2C1` (stereo not drawn) [Compound 754] gave an EC50 [2] of 104 nM and an EC50 ([3]; Plasmodium falciparum) of 190 nM.
In the case of `NCC(=O)N1CCn2c(nc(-c3ccccc3)c2Nc2ccc3c(c2)OCO3)C1` [Example 1, 2-amino-1-(3-(benzo[d][1,3]dioxol-5-ylamino)-2-phenyl-5,6-dihydroimidazo[1,2-a]pyrazin-7(8H)-yl)ethanone], the EC50 [2] is reported as 460 nM and the EC50 [3] is reported as 473 nM.
For `Fc1ccc(Nc2c(-c3ccc(F)cc3)nc3cnccn23)cc1` [Example 26, N,2-bis(4-fluorophenyl)imidazo[1,2-a]pyrazin-3-amine], the EC50 [2] was greater than 10000 nM and the EC50 [3] was 5520 nM.
`Fc1ccc(Nc2c(-c3ccc(F)cc3)nc3n2CCNC3)cc1` [Example 28, N,2-bis(4-fluorophenyl)-5,6,7,8-tetrahydroimidazo[1,2-a]pyrazin-3-amine] was tested, and the EC50 [2] was 200 nM and the EC50 [3] was 175 nM.
Molecule `CNCC(=O)N1CCn2c(nc(-c3ccc(F)cc3)c2Nc2ccc(F)cc2)C1` [Example 32, 1-(2-(4-fluorophenyl)-3-(4-fluorophenylamino)-5,6-dihydroimidazo[1,2-a]pyrazin-7(8H)-yl)-2-(methylamino)ethanone] has an EC50 [2] of 210 nM and an EC50 [3] of 219 nM.
`O=C(CO)N1CCn2c(nc(-c3ccc(F)cc3)c2Nc2ccc(F)cc2)C1` [Example 44, 1-(2-(4-fluorophenyl)-3-(4-fluorophenylamino)-5,6-dihydroimidazo[1,2-a]pyrazin-7(8H)-yl)-2-hydroxyethanone] gave an EC50 [2] of 720 nM and an EC50 [3] of 477 nM.
`Cc1ccc(Nc2c(-c3ccc(F)cc3)nc3n2CCNC3)cc1` [Example 113, 2-(4-fluorophenyl)-N-p-tolyl-5,6,7,8-tetrahydroimidazo[1,2-a]pyrazin-3-amine] showed an EC50 [2] of 150 nM and an EC50 [3] of 146 nM.
`Cc1ccc(Nc2c(-c3ccc(F)cc3)nc3cnccn23)cc1` [Example 136, 2-(4-fluorophenyl)-N-p-tolylimidazo[1,2-a]pyrazin-3-amine] was tested, and the EC50 [2] was 2020 nM and the EC50 [3] was 2690 nM.
`Cc1ccc(Nc2c(-c3ccc(F)cc3)nc3n2CCN(C(=O)N2CCC(N(C)C)C2)C3)cc1` (stereo not drawn) [Example 251, (3-(dimethylamino)pyrrolidin-1-yl)(2-(4-fluorophenyl)-3-(p-tolylamino)-5,6-dihydroimidazo[1,2-a]pyrazin-7(8H)-yl)methanone] was tested, and the EC50 [2] was 3680 nM and the EC50 [3] was 2550 nM.
Work on `Fc1ccc(-c2nc3n(c2Nc2ccc(Cl)cc2)CCNC3)cc1` [Example 262, N-(4-chlorophenyl)-2-(4-fluorophenyl)-5,6,7,8-tetrahydroimidazo[1,2-a]pyrazin-3-mine] yielded an EC50 [2] of 240 nM and an EC50 [3] of 267 nM.
`Cc1ccc(Nc2c(-c3cccc(C)c3)nc3n2CCNC3)cc1` [Example 266, 2-m-tolyl-N-p-tolyl-5,6,7,8-tetrahydroimidazo[1,2-a]pyrazin-3-amine] showed an EC50 [2] of 1170 nM and an EC50 [3] of 1310 nM.
